According to patent US4320117A, “Polypeptide” (Imperial Chemical Industries Limited, priority 1976, dated 1982):
Square brackets hold non-standard residues; d marks the D form. Peptide text beside a SMILES is read from it.

What was measured:
[1] = tested on: mouse hot-plate test (thermal stimulus, 56° C.); assay: mouse hot-plate test; format: in vivo, mice; settings: for mean increase in reaction time: female mice, hot plate at 56° C.
Experimental: As noted above, the compound of the formula I has analgesic activity in warm-blooded animals. […] This test is carried out as follows. Groups of three female mice each weighing 22 to 25g. are used to test each compound. Each mouse is placed on a heated thermostatically-controlled copper surface at 56° C., and the time taken to react to the thermal stimulus (for example by licking its hind paws) is recorded. Normal reaction times are in the range of 3 to 5 seconds.
Each of the three mice is then dosed intravenously with 100 mg./kg. of a solution of the test compound. At 5, 10 and 30 minutes after dosing, each mouse is again placed on the hot plate and its reaction time determined. […] In this circumstance the compound is regarded as having maximum activity at this dose.
A compound producing a mean increase in reaction time of at least three seconds is regarded as active. An active compound is then retested at lower doses.

cat = settings: injected directly into the 3rd ventricle of the cat; cited from earlier work

Row | Compound | mean increase in reaction time ([1]; intravenous dose of 100 mg./kg.) [s] | mean increase in reaction time ([1]; intravenous, 25 mg./kg.) [s] | duration of analgesic effect ([1]; mice, intravenous, 100 mg./kg.) | signs of toxicity ([1]; mice, intravenous, 100 mg./kg.) | analgesic properties (cat)
1 | CC[C@H](C)[C@H](NC(=O)[C@H](C)NC(=O)[C@H](CC(N)=O)NC(=O)[C@H](CCCCN)NC(=O)[C@H](Cc1ccccc1)NC(=O)[C@H](CC(C)C)NC(=O)[C@@H](NC(=O)[C@@H](NC(=O)[C@H](CC(C)C)NC(=O)[C@@H]1CCCN1C(=O)[C@@H](NC(=O)[C@H](CCC(N)=O)NC(=O)[C@H](CO)NC(=O)[C@H](CCCCN)NC(=O)[C@H](CCC(=O)O)NC(=O)[C@H](CO)NC(=O)[C@@H](NC(=O)[C@H](CC(C)C)NC(=O)[C@H](Cc1ccccc1)NC(=O)CNC(=O)[C@@H](C)NC(=O)[C@@H](N)Cc1ccc(O)cc1)[C@@H](C)O)[C@@H](C)O)C(C)C)[C@@H](C)O)C(=O)N[C@H](C(=O)N[C@@H](CCCCN)C(=O)N[C@@H](CC(N)=O)C(=O)N[C@@H](C)C(=O)N[C@@H](Cc1c[nH]cn1)C(=O)N[C@@H](CCCCN)C(=O)N[C@@H](CCCCN)C(=O)NCC(=O)N[C@@H](CCC(N)=O)C(=O)O)C(C)C [Example] (H-Y[dA]GFLTSEKSQTPLVTLFKNAIVKNAHKKGQ-OH) | 15 | 6 | at least 3 hours | no obvious signs of toxicity | 
2 | β-endorphin: residues 61-91 of the naturally-occurring lipolytic polypeptide hormone lipotropin (C-fragment of lipotropin) (YGGFMTSEKSQTPLVTLFKNAIIKNAYKKGE; Beta-endorphin; UniProt P01189 237-267, looked up) |  |  |  |  | possesses analgesic properties
